Columns and labels:
[1] = system: P-gp; conditions: patients receiving quinidine (P-gp inhibitor) treatment; cited from earlier work
[2] = system: liver; assay: In situ liver perfusion; assay type: in vivo, Sprague Dawley rats; conditions: rat in situ liver perfusion, within 120 minutes

Effect of inhibitor on the elimination rate of periplocin in the perfusate [2]	SMILES	Patients showing an obvious increase in the blood concentration of digoxin [1]
	C=C[C@H]1C[N@@]2CC[C@H]1C[C@@H]2[C@@H](O)c1ccnc2ccc(OC)cc12 [quinidine]	90%
significantly reduced	CO[C@H]1/C=C/O[C@@]2(C)Oc3c(C)c(O)c4c(O)c(c(/C=N/N5CCN(C)CC5)c(O)c4c3C2=O)NC(=O)/C(C)=C\C=C\[C@H](C)[C@H](O)[C@@H](C)[C@@H](O)[C@@H](C)[C@H](OC(C)=O)[C@@H]1C [rifampicin]	

— paper PMC4026310 (Drug Design, Development and Therapy, 2014)
